Experimental data taken from ChEMBL document CHEMBL1201862, “PubChem BioAssay data set” (2004).
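1) Cells in 96-well plates. 2) Compound, 48 h, 5 concentrations. 3) Linear interpolation between surrounding doses. 4) Unreached endpoint = highest concentration. GI50 marks 50% less growth.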 Activity calls are given as the source filed them. Cut-off read from the data, not from the text of the source: active = GI50 up to about 1.1 µM and inactive = higher.

Columns and labels:
Test in all cases: NCI tumour cell line growth inhibition, 48 h
OVCAR-3 = tested on: OVCAR-3
NCI/ADR-RES = tested on: NCI/ADR-RES
KM12 = tested on: KM12
SF-268 = tested on: SF-268
BT-549 = tested on: BT-549
UO-31 = tested on: UO-31
IGROV-1 = tested on: IGROV-1
OVCAR-4 = tested on: OVCAR-4
A498 = tested on: A498
Hs-578T = tested on: Hs-578T
RPMI-8226 = tested on: RPMI-8226
MOLT-4 = tested on: MOLT-4
HT-29 = tested on: HT-29
SN12C = tested on: SN12C
PC-3 = tested on: PC-3
MDA-N = tested on: MDA-N
HCT-15 = tested on: HCT-15
HL-60 = tested on: HL-60
HOP-62 = tested on: HOP-62
COLO 205 = tested on: COLO 205
SR = tested on: SR
K562 = tested on: K562
SF-539 = tested on: SF-539
HCT-116 = tested on: HCT-116
A549 = tested on: A549
786-0 = tested on: 786-0
UACC-62 = tested on: UACC-62
NCI-H460 = tested on: NCI-H460
NCI-H522 = tested on: NCI-H522
ACHN = tested on: ACHN
SNB-19 = tested on: SNB-19
MDA-MB-231 = tested on: MDA-MB-231
Malme-3M = tested on: Malme-3M
EKVX = tested on: EKVX
RXF 393 = tested on: RXF 393
NCI-H226 = tested on: NCI-H226
OVCAR-5 = tested on: OVCAR-5
SNB-75 = tested on: SNB-75
M14 = tested on: M14
OVCAR-8 = tested on: OVCAR-8
SK-OV-3 = tested on: SK-OV-3
MCF7 = tested on: MCF7
SK-MEL-28 = tested on: SK-MEL-28
HCC 2998 = tested on: HCC 2998
CCRF-CEM = tested on: CCRF-CEM
SK-MEL-5 = tested on: SK-MEL-5
MDA-MB-435 = tested on: MDA-MB-435
TK-10 = tested on: TK-10
U-251 = tested on: U-251
NCI-H23 = tested on: NCI-H23
CAKI-1 = tested on: CAKI-1
T47D = tested on: T47D
SK-MEL-2 = tested on: SK-MEL-2
DU-145 = tested on: DU-145
LOX IMVI = tested on: LOX IMVI
UACC-257 = tested on: UACC-257
HOP-92 = tested on: HOP-92
SW-620 = tested on: SW-620
SF-295 = tested on: SF-295

CC(NNC(=O)c1cc[n+]([BH2-]C#N)cc1)c1ccccc1 (stereo not drawn)
GI50 (OVCAR-3): > 100 µM (inactive) | GI50 (NCI/ADR-RES): > 100 µM (inactive) | GI50 (KM12): > 100 µM (inactive) | GI50 (SF-268): > 100 µM (inactive) | GI50 (BT-549): > 100 µM (inactive) | GI50 (UO-31): > 100 µM (inactive) | GI50 (IGROV-1): > 100 µM (inactive) | GI50 (OVCAR-4): > 100 µM (inactive) | GI50 (A498): > 100 µM (inactive) | GI50 (Hs-578T): > 100 µM (inactive) | GI50 (RPMI-8226): > 100 µM (inactive) | GI50 (MOLT-4): > 100 µM (inactive) | GI50 (HT-29): > 100 µM (inactive) | GI50 (SN12C): > 100 µM (inactive) | GI50 (PC-3): > 100 µM (inactive) | GI50 (MDA-N): > 100 µM (inactive) | GI50 (HCT-15): > 100 µM | GI50 (HL-60): > 100 µM (inactive) | GI50 (HOP-62): > 100 µM (inactive) | GI50 (COLO 205): > 100 µM (inactive) | GI50 (SR): > 100 µM (inactive) | GI50 (K562): > 100 µM (inactive) | GI50 (SF-539): > 100 µM (inactive) | GI50 (HCT-116): > 100 µM (inactive) | GI50 (A549): > 100 µM (inactive) | GI50 (786-0): > 100 µM (inactive) | GI50 (UACC-62): > 100 µM (inactive) | GI50 (NCI-H460): > 100 µM (inactive) | GI50 (NCI-H522): > 100 µM (inactive) | GI50 (ACHN): > 100 µM (inactive) | GI50 (SNB-19): > 100 µM (inactive) | GI50 (MDA-MB-231): > 100 µM (inactive) | GI50 (Malme-3M): > 100 µM (inactive) | GI50 (EKVX): > 100 µM (inactive) | GI50 (RXF 393): > 100 µM (inactive) | GI50 (NCI-H226): > 100 µM (inactive) | GI50 (OVCAR-5): > 100 µM (inactive) | GI50 (SNB-75): > 100 µM (inactive) | GI50 (M14): > 100 µM (inactive) | GI50 (OVCAR-8): > 100 µM (inactive) | GI50 (SK-OV-3): > 100 µM (inactive) | GI50 (MCF7): > 100 µM (inactive) | GI50 (SK-MEL-28): > 100 µM (inactive) | GI50 (HCC 2998): > 100 µM (inactive) | GI50 (CCRF-CEM): > 100 µM (inactive) | GI50 (SK-MEL-5): > 100 µM (inactive) | GI50 (MDA-MB-435): > 100 µM (inactive) | GI50 (TK-10): > 100 µM (inactive) | GI50 (U-251): > 100 µM (inactive) | GI50 (NCI-H23): > 100 µM (inactive) | GI50 (CAKI-1): > 100 µM (inactive) | GI50 (T47D): > 100 µM (inactive) | GI50 (SK-MEL-2): > 100 µM (inactive) | GI50 (DU-145): > 100 µM (inactive) | GI50 (LOX IMVI): > 100 µM (inactive) | GI50 (UACC-257): > 100 µM (inactive) | GI50 (HOP-92): > 100 µM (inactive) | GI50 (SW-620): > 100 µM (inactive) | GI50 (SF-295): > 100 µM (inactive)

Cc1c2cccc-2c(OCCO)cc2c1[nH]c1ccccc12
GI50 (OVCAR-3): 1.81 µM (inactive) | GI50 (NCI/ADR-RES): 3.03 µM (inactive) | GI50 (KM12): 2.58 µM (inactive) | GI50 (SF-268): 1.65 µM (inactive) | GI50 (BT-549): 2.92 µM (inactive) | GI50 (UO-31): 1.5 µM (inactive) | GI50 (IGROV-1): 1.88 µM (inactive) | GI50 (OVCAR-4): 3.43 µM (inactive) | GI50 (A498): 11.8 µM (inactive) | GI50 (Hs-578T): 1.67 µM (inactive) | GI50 (RPMI-8226): 3 µM (inactive) | GI50 (MOLT-4): 2.99 µM (inactive) | GI50 (HT-29): 3.52 µM (inactive) | GI50 (SN12C): 2.09 µM (inactive) | GI50 (PC-3): 2.72 µM (inactive) | GI50 (MDA-N): 2.76 µM (inactive) | GI50 (HCT-15): 3.16 µM | GI50 (HL-60): 2.16 µM (inactive) | GI50 (HOP-62): 3.42 µM (inactive) | GI50 (COLO 205): 1.87 µM (inactive) | GI50 (SR): 5.27 µM (inactive) | GI50 (K562): 3.1 µM (inactive) | GI50 (SF-539): 1.74 µM (inactive) | GI50 (HCT-116): 3.01 µM (inactive) | GI50 (A549): 3.15 µM (inactive) | GI50 (786-0): 2.24 µM (inactive) | GI50 (UACC-62): 2.67 µM (inactive) | GI50 (NCI-H460): 3.61 µM (inactive) | GI50 (NCI-H522): 1.83 µM (inactive) | GI50 (ACHN): 1.64 µM (inactive) | GI50 (SNB-19): 8.57 µM (inactive) | GI50 (MDA-MB-231): 1.98 µM (inactive) | GI50 (Malme-3M): 1.73 µM (inactive) | GI50 (EKVX): 1.04 µM (active) | GI50 (RXF 393): 2.37 µM (inactive) | GI50 (NCI-H226): 2.96 µM (inactive) | GI50 (OVCAR-5): 2.26 µM (inactive) | GI50 (SNB-75): 1.71 µM (inactive) | GI50 (M14): 1.97 µM (inactive) | GI50 (OVCAR-8): 3.6 µM (inactive) | GI50 (SK-OV-3): 3.27 µM (inactive) | GI50 (MCF7): 2.69 µM (inactive) | GI50 (SK-MEL-28): 4.49 µM (inactive) | GI50 (HCC 2998): 3.15 µM (inactive) | GI50 (CCRF-CEM): 4.75 µM (inactive) | GI50 (SK-MEL-5): 1.34 µM (inactive) | GI50 (MDA-MB-435): 3.53 µM (inactive) | GI50 (TK-10): 4.06 µM (inactive) | GI50 (U-251): 1.89 µM (inactive) | GI50 (NCI-H23): 2.54 µM (inactive) | GI50 (CAKI-1): 1.59 µM (inactive) | GI50 (T47D): 3.24 µM (inactive) | GI50 (SK-MEL-2): 3.72 µM (inactive) | GI50 (DU-145): 5.32 µM (inactive) | GI50 (LOX IMVI): 1.95 µM (inactive) | GI50 (UACC-257): 3.15 µM (inactive) | GI50 (HOP-92): 2.75 µM (inactive) | GI50 (SW-620): 3.52 µM (inactive) | GI50 (SF-295): 3.26 µM (inactive)
